In US10421774B2 (priority 2016, dated 2019):
Like-named read-outs stand apart in the source and are kept apart here.

Columns and labels:
Experiment in all cases: microbe, parasite or virus in culture
Format in all cases: cell-based, HIV-1
[1] = test system: NLRepRlucP373S recombinant wild type (WT) virus
Summary of the method: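 MT-2 cells infected with NLRepRlucP373S Renilla luciferase reporter virus (NL4-3, Gag P373S), inocula normalized by luciferase signal; compounds 3-fold serially diluted, 1% DMSO final. Virus yield read by Renilla luciferase after 4-5 days at 37 °C. EC50/EC90 from median effect equation; background = signal at NFV 3 μM.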

[2] = test system: A364V site directed mutant virus; conditions: for EC50: Human immunodeficiency virus 1, MT2, read-out: A364V EC50; for EC90: Human immunodeficiency virus 1, read-out: A364V EC90
Summary of the method: (§1)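 Multiple-cycle assay in MT-2 cells infected with Renilla luciferase NL4-3 (Gag P373S background) carrying site-directed Gag A364V or V370A/ΔT371 changes, inocula normalized by luciferase signal. 10,000 cells/well, 3-fold compound dilutions, 1% DMSO, 4–5 days at 37°C; yield read as Renilla luciferase.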

gag V370A/ΔT371 virus = conditions: for EC50: Human immunodeficiency virus 1, MT2, read-out: V370A/ΔT371 EC50; for EC90: Human immunodeficiency virus 1, read-out: V370A/ΔT371 EC90
Summary of the method: as §1

[3] = test system: T332S/V362I/Pr R41G virus; conditions: for EC50: Human immunodeficiency virus 1, MT2, read-out: T332S/V362I/pr41G EC50; for EC90: Human immunodeficiency virus 1, read-out: T332S/V362I/prR41G EC90
Summary of the method: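 Renilla luciferase NL4-3 reporter virus (Gag P373S background) carrying Gag T332S/V362I plus protease R41G, inoculum normalized by luciferase signal, infected MT-2 cells (10,000/well). Compounds 3-fold diluted, 1% DMSO final. After 4–5 days at 37 °C, virus yield measured as Renilla luciferase activity in a multiple-cycle assay.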

[4] = Human immunodeficiency virus 1, MT2, read-out: WT EC50
[5] = Human immunodeficiency virus 1, read-out: WT EC50

## C=C(C)[C@@H]1CC[C@]2(NCCN3CCS(=O)(=O)CC3)CC[C@]3(C)[C@H](CC[C@@H]4[C@@]5(C)CC=C(C6=CCC(COc7nc(C(=O)O)cs7)(C(=O)O)CC6)C(C)(C)[C@@H]5CC[C@]43C)[C@@H]12 (stereo partly drawn) [Example 4, 2-((1-carboxy-4-((1R,3aS,5aR,5bR,7aR,11aS,11bR,13aR,13bR)-3a-((2-(1,1-dioxidothiomorpholino)ethyl)amino)-5a,5b,8,8,11a-pentamethyl-1-(prop-1-en-2-yl)-2,3,3a,4,5,5a,5b,6,7,7a,8,11,11a,11b,12,13,13a,13b-octadecahydro-1H-cyclopentatalchrysen-9-yl)cyclohex-3-en-1-yl)methoxy)thiazole-4-carboxylic acid]
[1]; [4]
  EC50: > 0.05 µM
[2]
  EC50: > 0.05 µM
Gag V370A/ΔT371 virus
  EC50: > 0.05 µM
[3]
  EC50: > 0.05 µM

## C=C(C)[C@@H]1CC[C@]2(NCCN3CCS(=O)(=O)CC3)CC[C@]3(C)[C@H](CC[C@@H]4[C@@]5(C)CC=C(C6=CCC(CCOc7cc(Br)ccn7)(C(=O)O)CC6)C(C)(C)[C@@H]5CC[C@]43C)[C@@H]12 (stereo partly drawn) [Example A33, 1-(2-((4-bromopyridin-2-yl)oxy)ethyl)-4-((1R,3aS,5aR,5bR,7aR,11aS,11bR,13aR,13bR)-3a-((2-(1,1-dioxidothiomorpholino)ethyl)amino)-5a,5b,8,8,11a-pentamethyl-1-(prop-1-en-2-yl)-2,3,3a,4,5,5a,5b,6,7,7a,8,11,11a,11b,12,13,13a,13b-octadecahydro-1H-cyclopenta[a]chrysen-9-yl)cyclohex-3-ene-1-carboxylic acid]
[1]; [4]
  EC50: 0.006 µM
[2]
  EC50: 1.79 µM
Gag V370A/ΔT371 virus
  EC50: > 0.05 µM
[3]
  EC50: 0.419 µM

## C=C(C)[C@@H]1CC[C@]2(NCCN3CCS(=O)(=O)CC3)CC[C@]3(C)[C@H](CC[C@@H]4[C@@]5(C)CC=C(C6=CCC(CCOc7ncccc7C)(C(=O)O)CC6)C(C)(C)[C@@H]5CC[C@]43C)[C@@H]12 (stereo partly drawn) [Example A28, 4-((1R,3aS,5aR,5bR,7aR,11aS,11bR,13aR,13bR)-3a-((2-(1,1-dioxidothiomorpholino)ethyl)amino)-5a,5b,8,8,11a-pentamethyl-1-(prop-1-en-2-yl)-2,3,3a,4,5,5a,5b,6,7,7a,8,11,11a,11b,12,13,13a,13b-octadecahydro-1H-cyclopenta[a]chrysen-9-yl)-1-(2-((3-methylpyridin-2-yl)oxy)ethyl)cyclohex-3-ene-1-carboxylic acid]
[1]; [4]
  EC50: < 0.05 µM
[2]
  EC50: > 0.05 µM
Gag V370A/ΔT371 virus
  EC50: 0.068 µM
[3]
  EC50: 0.068 µM

## C=C(C)[C@@H]1CC[C@]2(NCCN3CCS(=O)(=O)CC3)CC[C@]3(C)[C@H](CC[C@@H]4[C@@]5(C)CC=C(C6=CCC(CCOc7ccnc(Cl)c7)(C(=O)O)CC6)C(C)(C)[C@@H]5CC[C@]43C)[C@@H]12 (stereo partly drawn) [Example A35, 1-(2-((2-chloropyridin-4-yl)oxy)ethyl)-4-((1R,3aS,5aR,5bR,7aR,11aS,11bR,13aR,13bR)-3a-((2-(1,1-dioxidothiomorpholino)ethyl)amino)-5a,5b,8,8,11a-pentamethyl-1-(prop-1-en-2-yl)-2,3,3a,4,5,5a,5b,6,7,7a,8,11,11a,11b,12,13,13a,13b-octadecahydro-1H-cyclopenta[a]chrysen-9-yl)cyclohex-3-ene-1-carboxylic acid]
[1]; [4]
  EC50: < 0.05 µM
[2]
  EC50: 0.233 µM
Gag V370A/ΔT371 virus
  EC50: 3 µM
[3]
  EC50: > 0.05 µM

## C=C(C)[C@@H]1CC[C@]2(NC[C@@H](O)CO)CC[C@]3(C)[C@H](CC[C@@H]4[C@@]5(C)CC=C(C6=CC[C@](COc7ncccc7C(N)=O)(C(=O)O)CC6)C(C)(C)[C@@H]5CC[C@]43C)[C@@H]12 [Example A8, (R)-1-(((3-carbamoylpyridin-2-yl)oxy)methyl)-4-((1R,3aS,5aR,5bR,7aR,11aS,11bR,13aR,13bR)-3a-(((R)-2,3-dihydroxypropyl)amino)-5a,5b,8,8,11a-pentamethyl-1-(prop-1-en-2-yl)-2,3,3a,4,5,5a,5b,6,7,7a,8,11,11a,11b,12,13,13a,13b-octadecahydro-1H-cyclopenta[a]chrysen-9-yl)cyclohex-3-enecarboxylic acid]
[1]; [4]
  EC50: 0.004 µM
[2]
  EC50: 0.176 µM
Gag V370A/ΔT371 virus
  EC50: 0.023 µM
[3]
  EC50: 0.023 µM

## C=C(C)[C@@H]1CC[C@]2(NCCN3CCS(=O)(=O)CC3)CC[C@]3(C)[C@H](CC[C@@H]4[C@@]5(C)CC=C(C6=CCC(COCc7ncccc7C#N)(C(=O)O)CC6)C(C)(C)[C@@H]5CC[C@]43C)[C@@H]12 (stereo partly drawn) [reference compound]
[1]; [5]
  EC50: 0.002 µM
[2]
  EC90: 0.34 µM
Gag V370A/ΔT371 virus
  EC90: 1.46 µM
[3]
  EC90: 1.46 µM

## C=C(C)[C@@H]1CC[C@]2(NCCN3CCS(=O)(=O)CC3)CC[C@]3(C)[C@H](CC[C@@H]4[C@@]5(C)CC=C(C6=CCC(COc7cnnn7CC)(C(=O)O)CC6)C(C)(C)[C@@H]5CC[C@]43C)[C@@H]12 (stereo partly drawn) [Example 7]
[1]; [4]
  EC50: 0.002 µM
[2]
  EC50: 0.095 µM
Gag V370A/ΔT371 virus
  EC50: 0.192 µM
[3]
  EC50: 0.192 µM

## C=C(C)[C@@H]1CC[C@]2(NCCN3CCS(=O)(=O)CC3)CC[C@]3(C)[C@H](CC[C@@H]4[C@@]5(C)CC=C(C6=CCC(COc7nccs7)(C(=O)O)CC6)C(C)(C)[C@@H]5CC[C@]43C)[C@@H]12 (stereo partly drawn) [Example 15, 4-((1R,3aS,5aR,5bR,7aR,11aS,11bR,13aR,13bR)-3a-((2-(1,1-dioxidothiomorpholino)ethyl)amino)-5a,5b,8,8,11a-pentamethyl-1-(prop-1-en-2-yl)-2,3,3a,4,5,5a,5b,6,7,7a,8,11,11a,11b,12,13,13a,13b-octadecahydro-1H-cyclopenta[a]chrysen-9-yl)-1-((thiazol-2-yloxy)methyl)cyclohex-3-ene-1-carboxylic acid]
[1]; [4]
  EC50: 0.004 µM
[2]
  EC50: 2.38 µM
Gag V370A/ΔT371 virus
  EC50: 0.39 µM
[3]
  EC50: 0.39 µM

## C=C(C)[C@@H]1CC[C@]2(NCCN3CCS(=O)(=O)CC3)CC[C@]3(C)[C@H](CC[C@@H]4[C@@]5(C)CC=C(C6=CCC(CCOc7cc(Cl)ccn7)(C(=O)O)CC6)C(C)(C)[C@@H]5CC[C@]43C)[C@@H]12 (stereo partly drawn) [Example A34, 1-(2-((4-chloropyridin-2-yl)oxy)ethyl)-4-((1R,3aS,5aR,5bR,7aR,11aS,11bR,13aR,13bR)-3a-((2-(1,1-dioxidothiomorpholino)ethyl)amino)-5a,5b,8,8,11a-pentamethyl-1-(prop-1-en-2-yl)-2,3,3a,4,5,5a,5b,6,7,7a,8,11,11a,11b,12,13,13a,13b-octadecahydro-1H-cyclopenta[a]chrysen-9-yl)cyclohex-3-ene-1-carboxylic acid]
[1]; [4]
  EC50: 0.002 µM
[2]
  EC50: 0.064 µM
Gag V370A/ΔT371 virus
  EC50: > 0.05 µM
[3]
  EC50: 0.096 µM

## C=C(C)[C@@H]1CC[C@]2(NCCN3CCS(=O)(=O)CC3)CC[C@]3(C)[C@H](CC[C@@H]4[C@@]5(C)CC=C(C6=CC[C@@](COc7ncccc7C#N)(C(=O)O)CC6)C(C)(C)[C@@H]5CC[C@]43C)[C@@H]12 [Example 25, (S)-1-(((3-cyanopyridin-2-yl)oxy)methyl)-4-((1R,3aS,5aR,5bR,7aR,11aS,11bR,13aR,13bR)-3a-((2-(1,1-dioxidothiomorpholino)ethyl)amino)-5a,5b,8,8,11a-pentamethyl-1-(prop-1-en-2-yl)-2,3,3a,4,5,5a,5b,6,7,7a,8,11,11a,11b,12,13,13a,13b-octadecahydro-1H-cyclopenta[a]chrysen-9-yl)cyclohex-3-ene-1-carboxylic acid]
[1]; [4]
  EC50: 0.002 µM
[1]; [5]
  EC50: 0.002 µM
[2]
  EC50: 0.018 µM
  EC90: 0.041 µM
Gag V370A/ΔT371 virus
  EC50: 0.01 µM
  EC90: 0.002 µM
[3]
  EC50: 0.01 µM
  EC90: 0.021 µM

## C=C(C)[C@@H]1CC[C@]2(NCC[C@]3(O)CC[C@@H](S(C)(=O)=O)CC3)CC[C@]3(C)[C@H](CC[C@@H]4[C@@]5(C)CC=C(C6=CCC(COc7ccccn7)(C(=O)O)CC6)C(C)(C)[C@@H]5CC[C@]43C)[C@@H]12 (stereo partly drawn) [Example A1, 4-((1R,3aS,5aR,5bR,7aR,11aS,11bR,13aR,13bR)-3a-((2-((1s,4R)-1-hydroxy-4-(methylsulfonyl)cyclohexyl)ethyl)amino)-5a,5b,8,8,11a-pentamethyl-1-(prop-1-en-2-yl)-2,3,3a,4,5,5a,5b,6,7,7a,8,11,11a,11 b,12,13,13a,13b-octadecahydro-1H-cyclopenta[a]chrysen-9-yl)-1-((pyridin-2-yloxy)methyl)cyclohex-3-enecarboxylic acid]
[1]; [4]
  EC50: 0.005 µM
[2]
  EC50: 0.009 µM
Gag V370A/ΔT371 virus
  EC50: 0.026 µM
[3]
  EC50: 0.026 µM
